Series [1] is described as follows: Absorption/emission profiles and spectral properties of the dyes. Format: physicochemical. How it is done:
The following properties of 679 Compound 1-NHS were compared with commercially available dyes.
Emission/excitation profiles for inventive and commercial compounds was determined by reconstituting the compounds in DMF at 10 mg/ml and then diluting in PBS buffer pH 7.2 to 10 μg/ml. Absorbance spectra were collected on Cary UV spectrophotometer and emission spectra were collected on Tecan Safire, shown in FIG. 1 where solid lines represent absorbance spectra and dashed lines represent emission spectra, for DyLight 680-NHS (purple), DyLight 680B-NHS (blue), 679 Compound 1-NHS (red), and Company B Compound-NHS (black). The maximum absorbance and emission for each compound is shown below.
The following properties of 679 Compound 1-NHS, 679 Compound 4/4-NHS (V08-15173), and 679 Compound 4/4-NHS (V10-04152) were compared with commercially available dyes.

Series [2] in a line: Photobleaching without anti-fade, U2OS cells stained with lamin B1/dye-conjugated GAR. It counts as physicochemical. How it is done: Photobleaching of inventive and commercial compounds without anti-fade reagent was examined. U2OS cells stained with lamin B1/dye-conjugated GAR were exposed to bright light (3.4V) for 8 sec at intervals of 1 sec, the overall capture amounting to a total of about 15 min using the TR filter Obj.: 20× NA: 0.4 on the Zeiss Axio Observer .Z1 microscope. The image stacks collected from the time-lapse experiment were analyzed using ImageJ software to determine the decay rate of fluorescence intensity. The raw intensity was normalized to initial intensity for each conjugate and the photobleaching curve was plotted against time, as shown in FIG. 48. Immunostaining with 679 Compound 4/4 conjugate had shown about 2 to 3-fold brighter staining intensity compared to DyLight 680 Dye.

Series [3] can be described thus: In vivo biodistribution and clearance of free dye. To be noted: 100 μL of 1 mg/mL hydrolyzed dye IV via retro orbital plexus, imaged to 24 h. On the set-up: species or system nude mice. How it is done: In in vivo biodistribution, the mice received intravenous dye injections via the retro orbital plexus and were imaged on a Carestream MSFX Imager (690 nm excitation/750 nm emission) before injection and at 0 h, 3 h, 6 h, 12 h, and 24 h post injection. After the final time point, animals were sacrificed and organs were collected for ex vivo imaging. Toxicity was evaluated by investigating the dissected tissue section.
Biodistribution and clearance was investigated in the live animals over time by measuring the clearance or specific retention of the dye/labeled target. Experiments were performed in triplicate on nude mice. 100 μL of 1 mg/mL hydrolyzed dye solution was IV injected via the retro orbital plexus. Animals were imaged using 690 nm excitation and 750 nm emission at 140 mm FOV on a Carestream XTREME (10 s) Imager. Images taken before (pre) and at 0 min, 10 min, 30 min, 1 hour, 3 hour, 6 hour, 12 hour and 24 hours post injection are shown in FIG. 44B. After the final time point, the organs were collected for ex vivo imaging to confirm and quantify accumulation of the agent in tumors, tissues, and other organs (heart, liver, spleen, GI tract, lungs and kidney), as shown in FIG. 44C using triplicate mice. 679 Compound 4/4 allowed for probe conjugation, high fluorescence with excellent sensitivity for deep-tissue in vivo imaging, and target quantification in tissues.

A short description of series [4]: Dye toxicity, H&E histology of heart, liver, spleen, lungs, kidney. It counts as in vivo. To be noted: H&E staining of tissues after 24 h. How it is done:
After the final time point, animals were sacrificed and their organs collected for ex vivo imaging to confirm and quantify dye accumulation in tumors, tissues, and other organs such as heart, liver, spleen, GI tract, lungs, and kidney. Images were taken before (pre), and at 0 min, 10 min, 30 min, 1 hour, 3 hour, 6 hour, 12 hour, and 24 hour post injection. To test dye toxicity, heart, liver, spleen, lungs and kidney tissues were gathered from one mouse from each cohort, fixed, stained with hematoxylin and eosin (H&E), and evaluated.
Colorimetric images were acquired at 20× on a Nikon 90i microscope.

Series [5] has as its system lamin A. In words: Immunofluorescence of nuclear envelope in U2OS cells, mouse anti-lamin A, dye-GAM (FIG. 43). It counts as cell-based, human. To be noted: FIG. 43A. How it is done:
U2OS (human bone cancer) or HeLa cells were seeded at 5,000 cells per well in 96-well plates and incubated for 18-20 hours at 37° C., 5% CO2 in a humidified incubator. The cells were fixed with 4% paraformaldehyde and permeabilized with 0.1% Thermo Scientific Surfact-Amps X-100 Detergent, then blocked for nonspecific IgG binding. Cells were incubated with a target-specific primary antibody for 30 minutes at room temperature (RT). After washing with PBS containing 0.05% Tween™-20 Detergent Solution, cells were incubated for 30 minutes at RT with 4 μg/mL of the appropriate secondary antibody conjugated with 679 Compound 4/4 and compared to similarly conjugated counterparts (DyLight 680, Alexa Fluor™ 680, and CF™ 680 Dyes) for 30 minutes at RT. The conjugates were affinity purified goat anti-mouse IgG (H+L) (GAM) or goat anti-rabbit IgG (H+L) (GAR). […] Microscopy time lapse experiments to measure dye photostability were performed using the appropriate shift-free optical filter set with a 40×/1.3 oil objective on a Zeiss Axio Observer™ .Z1 fluorescence microscope using an ORCA-ER-1394 Hamamatsu, CCD Digital Camera and the AxioVison™ Release 4.7 Software. […]
The nuclear envelop in U2OS cells was fluorescently labeled with mouse anti-lamin A primary antibody and detected with goat anti-mouse conjugated to 679 Compound 4/4-NHS, DyLight 680-NHS, Alexa Fluor 680-NHS and CF 680-SE Dyes. […]

The test system of series [6] is rabbit IgG immunoglobulin. The series can be described thus: Functional fluorescence plate assay, dye-GAR conjugates. It counts as binding. To be noted: LiCOR Odyssey, FIGS. 17, 19. How it is done: Performance of the dye-GAM conjugates, dye-GAR conjugates, and dye-SA conjugates was evaluated in a functional plate assay. Wells of a 96 white opaque plate or black clear-bottom plate were coated with target proteins mouse IgG immunoglobulin, rabbit IgG immunoglobulin, or biotinylated bovine serum albumin (BBSA). One hundred μl mouse or rabbit IgG, or BBSA at a concentration of 10 μg/ml was applied to the corresponding wells in columns 1 and 2. The target proteins were serially diluted 1:1 from the wells in columns 2 to 11 using 100 μl PBS. One hundred μl of the samples from the wells in column 11 were discarded. One hundred μl PBS was added to the wells in column 12. The plates were incubated overnight at 4° C. and then blocked 2×200 μl with Thermo Scientific SuperBlock® Blocking Buffer. The coated plates were washed 2×200 μl with PBS-Tween and 1×200 μl with PBS. Based on the calculated concentrations, conjugates were diluted 1:250 in PBS, added to the corresponding plates (100 μl/well) and then incubated for one hour in the dark. The plates were washed with 2×200 μl with PBS-Tween and 1×200 μl with PBS and filled with PBS buffer (100 μl/well) prior to scanning the white opaque plates on Tecan Safire using 679 nm excitation/702 nm emission or scanning the black clear-bottom plates on LiCor Odyssey at 700 channel, to detect fluorescence intensity.

Series [7] has as its system lamin A. The series can be described thus: Immunofluorescence detection of lamin A in U2OS cells, dye-GAM secondary (FIG. 29A-C and repeat). It counts as cell-based, human. To be noted: for Mean Total Intensity, Negative control: no primary antibody. How it is done: In the indicated experiments, the inventive compounds and commercial dye were evaluated for immunofluorescence in a cell based assay using the following protocol. Frozen U20S cell plates which were stored at −80° C. were thawed for 45 minutes at 50° C. Storage buffer (PBS) was removed and the cells were permeabilized for 15 minutes with 0.1% Triton-X100 in 1×PBS buffer (100 μl/well). The cell plate was blocked for 60 minutes in 2% BSA/PBS-0.1% Triton-X100. Primary antibody, either rat anti-Grp94 (5 μg/ml), mouse anti-lamin A (10 μg/ml), or rabbit anti-lamin B1 (10 μg/ml), diluted in 2% BSA/PBS-0.1% Triton-X100 was added to the plate and incubated for 1 hour at room temperature. Control wells contained only 2% BSA/PBS-0.1% Triton-X100 blocker. After incubation, the antibody solution was removed from the plate and the plate was washed three times with 100 μl/well of PBS-0.5% Tween-20 and one time with 100 μl/well PBS. GARat, GAM, or GAR secondary antibodies labeled with various molar excess of the inventive or commercial compound were diluted to 4 μg/ml in PBS and incubated for 1 hour at room temperature. The plates were washed three times with 100 μl/well of PBST and once with 100 μl/well PBS, and Hoechst (diluted to 0.1 μg/ml in PBS) was added to each well (100 μl/well). The plates were scanned on ArrayScan Plate Reader or ToxInsight Instrument.
Quantitative analysis of a repeat experiment of FIG. 29A-C are shown below.

Results on two compounds are retold here after patent publication US10526317B2, “Benzocyanine compounds” (PIERCE BIOTECHNOLOGY, INC., priority 2012, dated 2020).

Each structure is given as a SMILES string. “Also recorded” adds a separate entry of the source.

Consider `COCCOCCOCCOCC[N+]1=C(/C=C/C=C/C=C2/N(CCOCCOCCOCCOCCC(=O)O)c3ccc4c(S(=O)(=O)[O-])cc(S(=O)(=O)O)cc4c3C2(C)CCOCCOCCOCCOC)C(C)(CCOCCOCCOCCOC)c2c1ccc1c(S(=O)(=O)O)cc(S(=O)(=O)O)cc21` (centres unmarked) [679 Compound 4/4], for which, in series [1], the emits at is 706 nm and the excites at was found to be 684 nm. In addition, the “photostability (in words)” value in series [2] (absence of anti-fade agent) is “slightly less stable than DyLight 680 dye”. The “staining intensity, fold brighter compared to DyLight 680 Dye” value in series [2] (immunostaining) is 2 to 3 fold. Also, in series [3], the “biodistribution and clearance (in words)” value was “rapid clearance through kidney and/or gastrointestinal tract; also recorded: fast whole-body dye uptake and displayed rapid dye clearance mainly through the kidney and GI tract”. In addition, the “toxicity (in words)” value in series [4] was “low intrinsic toxicity; also recorded: No tissue damage was observed from histology”. In addition, the “staining intensity, fold brighter compared to DyLight 680-GAM, Alexa Fluor 680-GAM and CF 680-GAM” value with lamin A [5] is given as 2-3 fold.

Take `COCC[N+]1=C(/C=C/C=C/C=C2/N(CCCCCC(=O)O)c3ccc4c(S(=O)(=O)[O-])cc(S(=O)(=O)[O-])cc4c3C2(C)C)C(C)(CCCS(=O)(=O)[O-])c2c1ccc1c(S(=O)(=O)[O-])cc(S(=O)(=O)[O-])cc21.[Na+].[Na+].[Na+].[Na+]` (centres unmarked) [679 Compound 1/1, 2-{(1E,3E)-5-[3-(5-Carboxypentyl)-1,1-dimethyl-6,8-disulfo-1,3-dihydro-benzo[e]indol-(2E)-ylidene]-penta-1,3-dienyl}-3-(2-methoxy-ethyl)-1-methyl-6,8-disulfo-1-(3-sulfopropyl)-1H-benzo[e]indolium]: the “Raw Fluorescence Intensity, quenching at high molar excess (in words)” value in series [6] is “saturating at 25×; also recorded: apparent quenching at 1000 ng/well at 25×”. For the same compound, the “Mean Total Intensity (Average)” value with lamin A [7] (GAM conjugate 4 μg/ml, 2.5 X molar excess) stood at 29229; in the series with lamin A [7] (GAM conjugate 4 μg/ml, 5.0 X molar excess), 49279; with lamin A [7] (GAM conjugate 4 μg/ml, 7.5 X molar excess), 28782; with lamin A [7] (GAM conjugate 4 μg/ml, 10 X molar excess), 30098; with lamin A [7] (GAM conjugate 4 μg/ml, 15 X molar excess) it was 48071; in the series with lamin A [7] (repeat experiment, 2.5 X molar excess), 77195. The “Mean Total Intensity (Average)” value is listed as 140772 with lamin A [7] (repeat experiment, 5 X molar excess); 159948 in the series with lamin A [7] (repeat experiment, 10X molar excess); 199626 in the series on lamin A [7] (repeat experiment, 15 X molar excess). Moreover, the “Mean Total Intensity, Negative control” value in the series on lamin A [7] (2.5 X) amounted to 5628; in the series on lamin A [7] (5.0 X), 5859; in the series on lamin A [7] (10 X), 6115; with lamin A [7] (15 X) it was 7277; with lamin A [7] (repeat experiment, 2.5 X) it was 8711; with lamin A [7] (repeat experiment, 5 X) it was 8674. The “Mean Total Intensity, Negative control” value in the series on lamin A [7] (repeat experiment, 10X) came to 20481; in the series on lamin A [7] (repeat experiment, 15 X), 16277. In addition, the S/B in the series with lamin A [7] (repeat experiment, 2.5 X) came out at 8.9; in the series with lamin A [7] (repeat experiment, 5 X), 16.2; with lamin A [7] (repeat experiment, 10X), 7.8; with lamin A [7] (repeat experiment, 15 X) it was 12.3.
